{"source": "paper PMC4914392", "about": "(Bioorganic & medicinal chemistry, 2016)", "origin": "cited, not measured here", "conditions": "ref [17]", "data": [{"smiles": "Nc1nccc2c1nnn2[C@@H]1O[C@H](CO)[C@@H](O)[C@H]1O", "note": "[Compound 4, 8-aza-3-deazaadenosine]", "values": [{"measurement": "Fluorescence emission λmax (H2O)", "value": 430, "unit": "nm"}, {"measurement": "Stokes shift (H2O)", "value": 140, "unit": "nm"}]}]}
